What was measured:
Assay type in all cases: cell-based
STAT3 = biological target: T1, STAT3 (Homo sapiens, UniProt P40763); experiment: STAT3 reporter gene assay (luciferase), LNCaP stable cell line (pSTAT3-TA-luc), IL-6 stimulation
T1 construct: plasmid pSTAT3-TA-luc), which contains a stably operating STAT3 promoter; endogenous in cells
Summary of the method: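 Cytotoxicity was run on a duplicate plate with CellTiter-Glo, while the other plate gave luciferase read-outs from lysed LNCaP pSTAT3-TA-luc reporter cells. Cells were treated with graded compound concentrations plus IL-6 (10 ng/mL final) for 24–48 h in 3% DCC-FBS medium. Unstimulated and stimulated wells served as negative and positive controls.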

LNCaP = experiment: Cell growth inhibition assay, prostate cancer cell line LNCaP (medium with 10 ng/mL IL-6); conditions: Homo sapiens, medium supplemented with 10 ng/mL of IL-6, 10,000 cells/well
DU-145 = experiment: Cell growth inhibition assay, prostate cancer cell line DU-145; conditions: Homo sapiens, DU-145 prostate cancer cell line
Summary of the method: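 Readout was CellTiter-Glo luminescence after 72–96 h of compound exposure at 37 °C, 5% CO2. Plating density was 3,000 cells/well for DU-145 and HCT116 and 5,000 cells/well for SW626. Controls were 0.1% DMSO wells and medium-only wells.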

T1 sequence (P40763 whole entry): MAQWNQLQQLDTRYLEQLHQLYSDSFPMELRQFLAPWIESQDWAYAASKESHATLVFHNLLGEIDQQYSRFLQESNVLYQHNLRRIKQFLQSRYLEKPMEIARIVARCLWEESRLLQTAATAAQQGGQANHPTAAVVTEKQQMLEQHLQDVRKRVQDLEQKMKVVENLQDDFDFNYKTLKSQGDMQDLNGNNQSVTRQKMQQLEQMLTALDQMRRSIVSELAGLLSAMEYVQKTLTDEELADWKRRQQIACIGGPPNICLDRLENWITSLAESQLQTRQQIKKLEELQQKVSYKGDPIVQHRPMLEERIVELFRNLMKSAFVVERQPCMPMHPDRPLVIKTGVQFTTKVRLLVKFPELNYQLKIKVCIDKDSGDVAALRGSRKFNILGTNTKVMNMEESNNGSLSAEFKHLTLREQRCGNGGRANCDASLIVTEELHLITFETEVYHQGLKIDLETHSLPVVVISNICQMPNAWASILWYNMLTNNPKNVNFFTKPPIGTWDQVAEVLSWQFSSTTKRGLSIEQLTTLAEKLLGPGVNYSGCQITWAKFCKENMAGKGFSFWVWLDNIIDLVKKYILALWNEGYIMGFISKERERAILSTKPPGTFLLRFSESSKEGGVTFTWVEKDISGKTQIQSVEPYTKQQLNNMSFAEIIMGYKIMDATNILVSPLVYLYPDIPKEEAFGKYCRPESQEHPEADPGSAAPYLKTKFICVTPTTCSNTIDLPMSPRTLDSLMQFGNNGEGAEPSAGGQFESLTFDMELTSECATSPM

SMILES	IC50 (STAT3) [µM]	IC50 (LNCaP) [µM]	IC50 (DU-145) [µM]
CS(=O)(=O)Nc1ccc2sc(C(=O)Nc3cc(Cl)cc(Oc4cc(Cl)cc(C#N)c4)c3)cc2c1 [Example 458, N-(3-chloro-5-(3-chloro-5-cyanophenoxy)phenyl)-5-(methylsulfonamido)benzo[b]thiophene-2-carboxamide]	0.25	0.33	0.17
CS(=O)(=O)Nc1ccc2sc(C(=O)Nc3cc(Cl)cc(Oc4cccc(C#N)c4)c3)cc2c1 [Example 459, N-(3-chloro-5-(3-cyanophenoxy)phenyl)-5-(methylsulfonamido)benzo[b]thiophene-2-carboxamide]	0.36	0.79	0.59
CS(=O)(=O)Nc1ccc2sc(C(=O)Nc3cc(Cl)cc(Oc4ccc(F)c(F)c4)c3)cc2c1 [Example 460, N-(3-chloro-5-(3,4-difluorophenoxy)phenyl)-5-(methylsulfonamido)benzo[b]thiophene-2-carboxamide]	0.15	0.23	0.13
CS(=O)(=O)Nc1ccc2sc(C(=O)Nc3cc(Cl)cc(Oc4ccc(F)c(Cl)c4)c3)cc2c1 [Example 461, N-(3-chloro-5-(3-chloro-4-fluorophenoxy)phenyl)-5-(methylsulfonamido)benzo[b]thiophene-2-carboxamide]	0.14	0.24	0.11
CS(=O)(=O)Nc1ccc2sc(C(=O)Nc3cc(Cl)cc(Oc4ccc(Cl)cc4Cl)c3)cc2c1 [Example 462, N-(3-chloro-5-(2,4-dichlorophenoxy)phenyl)-5-(methylsulfonamido)benzo[b]thiophene-2-carboxamide]	0.13	0.33	0.13
CS(=O)(=O)Nc1ccc2sc(C(=O)Nc3cc(Cl)cc(Oc4cc(F)cc(F)c4)c3)cc2c1 [Example 463, N-(3-chloro-5-(3,5-difluorophenoxy)phenyl)-5-(methylsulfonamido)benzo[b]thiophene-2-carboxamide]	0.19	0.27	0.15
CS(=O)(=O)Nc1ccc2sc(C(=O)Nc3cc(Cl)cc(Oc4cc(Cl)cc(Cl)c4)c3)cc2c1 [Example 464, N-(3-chloro-5-(3,5-dichlorophenoxy)phenyl)-5-(methylsulfonamido)benzo[b]thiophene-2-carboxamide]	0.17	0.31	0.16
CS(=O)(=O)Nc1ccc2sc(C(=O)Nc3cc(Cl)cc(Oc4ccc(C(F)(F)F)cc4)c3)cc2c1 [Example 465, N-(3-chloro-5-(4-(trifluoromethyl)phenoxy)phenyl)-5-(methylsulfonamido)benzo[b]thiophene-2-carboxamide]	0.12	0.063	0.048
CS(=O)(=O)Nc1ccc2sc(C(=O)Nc3cc(Cl)cc(Oc4ccc(Cl)c(F)c4)c3)cc2c1 [Example 466, N-(3-chloro-5-(4-chloro-3-fluorophenoxy)phenyl)-5-(methylsulfonamido)benzo[b]thiophene-2-carboxamide]	0.12	0.079	0.063
CS(=O)(=O)Nc1ccc2sc(C(=O)Nc3cc(Cl)cc(Oc4cc(Cl)cc(OC(F)(F)F)c4)c3)cc2c1 [Example 467, N-(3-chloro-5-(3-chloro-5-(trifluoromethoxy)phenoxy)phenyl)-5-(methylsulfonamido)benzo[b]thiophene-2-carboxamide]	0.22	0.039	0.048
CS(=O)(=O)Nc1ccc2sc(C(=O)Nc3cc(Cl)cc(Oc4ccc(Cl)c(OC(F)(F)F)c4)c3)cc2c1 [Example 468, N-(3-chloro-5-(4-chloro-3-(trifluoromethoxy)phenoxy)phenyl)-5-(methylsulfonamido)benzo[b]thiophene-2-carboxamide]	0.17	0.04	0.028
CS(=O)(=O)Nc1ccc2sc(C(=O)Nc3cc(Cl)cc(Oc4cc(F)cc(Cl)c4)c3)cc2c1 [Example 469, N-(3-chloro-5-(3-chloro-5-fluorophenoxy)phenyl)-5-(methylsulfonamido)benzo[b]thiophene-2-carboxamide]	0.36	0.12	0.086
